Literature values, collected in US12219980B2, “Nutritionally enhanced fraction from rice bran and method of lowering insulin resistance using same” (QJV, LLC, priority 2010, dated 2025).

How the values were obtained:
[1] = animal studies, compared with controls
[2] = in vivo
HMG-CoA = target: T1, HMG-CoA (Homo sapiens, UniProt P04035); conditions: micromolar amounts
T1 sequence (P04035 1-888): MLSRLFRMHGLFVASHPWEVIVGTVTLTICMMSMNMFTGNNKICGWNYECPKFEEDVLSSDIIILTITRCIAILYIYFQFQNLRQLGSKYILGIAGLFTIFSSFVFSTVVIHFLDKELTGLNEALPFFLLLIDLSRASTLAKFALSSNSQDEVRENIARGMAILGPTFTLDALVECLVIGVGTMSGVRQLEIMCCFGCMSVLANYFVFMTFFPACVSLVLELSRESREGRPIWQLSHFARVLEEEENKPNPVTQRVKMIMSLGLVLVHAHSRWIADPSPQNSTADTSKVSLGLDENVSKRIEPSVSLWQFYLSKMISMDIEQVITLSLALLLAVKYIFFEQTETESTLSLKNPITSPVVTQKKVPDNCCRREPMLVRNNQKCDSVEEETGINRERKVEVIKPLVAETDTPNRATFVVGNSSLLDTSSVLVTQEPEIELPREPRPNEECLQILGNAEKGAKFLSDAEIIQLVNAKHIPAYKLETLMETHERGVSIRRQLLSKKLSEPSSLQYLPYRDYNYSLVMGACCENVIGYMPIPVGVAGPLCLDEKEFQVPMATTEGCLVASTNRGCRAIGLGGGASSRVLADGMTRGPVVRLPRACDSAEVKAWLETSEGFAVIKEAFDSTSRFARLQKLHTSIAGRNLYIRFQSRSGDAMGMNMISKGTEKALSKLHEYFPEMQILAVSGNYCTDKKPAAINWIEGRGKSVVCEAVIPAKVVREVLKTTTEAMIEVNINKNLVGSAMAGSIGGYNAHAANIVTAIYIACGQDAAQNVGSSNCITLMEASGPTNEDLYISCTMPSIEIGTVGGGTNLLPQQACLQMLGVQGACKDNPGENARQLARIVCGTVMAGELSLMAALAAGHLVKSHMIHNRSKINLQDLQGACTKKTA

[3] = in vivo; remark: listed apart in the source

Molecule: COc1cc(/C=C/C(=O)O)ccc1O [ferulic acid]
- activities of hepatic glucose-6-phosphate dehydrogenase, catalase and peroxidase [1]: diminishing
- levels of glycogen in the liver and skeletal muscle [1]: significantly decreased

Molecule: gamma-oryzanol
- bile acid secretion and fecal excretion of cholesterol [2]: affect bile acid secretion and fecal excretion of cholesterol

Molecule: tocotrienol
- activity of HMG-CoA (HMG-CoA): suppress the activity of HMG-CoA
- total cholesterol and LDL cholesterol in blood plasma [3]: lower
